Experiments:
Conditions in all cases: 72 h
Vero E6 [1] = test: drug sensitivity score (DSS) for viability; higher = more toxic; extreme values may be limits of the assay
HepG2 [2] = test: as above
Calu-3 [3] = test: as above
Caco-2 [4] = test: as above
U2OS [5] = test: as above
Vero E6 [6] = test: cell viability relative to DMSO; higher = less toxic
HepG2 [7] = test: as above
Calu-3 [8] = test: as above
Caco-2 [9] = test: as above
U2OS [10] = test: as above
Vero E6 [11] = test: relative viability EC50 (midpoint between 100% and the lowest measured viability); higher = less toxic
HepG2 [12] = test: as above
Calu-3 [13] = test: as above
Caco-2 [14] = test: as above
U2OS [15] = test: as above

SMILES	drug sensitivity score (Vero E6 [1])	drug sensitivity score (HepG2 [2])	drug sensitivity score (Calu-3 [3])	drug sensitivity score (Caco-2 [4])	drug sensitivity score (U2OS [5])	cell viability (Vero E6 [6]; 1 nM) [%]	cell viability (Vero E6 [6]; 10 nM) [%]	cell viability (Vero E6 [6]; 100 nM) [%]	cell viability (Vero E6 [6]; 1000 nM) [%]	cell viability (Vero E6 [6]; 10000 nM) [%]	cell viability (HepG2 [7]; 1 nM) [%]	cell viability (HepG2 [7]; 10 nM) [%]	cell viability (HepG2 [7]; 100 nM) [%]	cell viability (HepG2 [7]; 1000 nM) [%]	cell viability (HepG2 [7]; 10000 nM) [%]	cell viability (Calu-3 [8]; 1 nM) [%]	cell viability (Calu-3 [8]; 10 nM) [%]	cell viability (Calu-3 [8]; 100 nM) [%]	cell viability (Calu-3 [8]; 1000 nM) [%]	cell viability (Calu-3 [8]; 10000 nM) [%]	cell viability (Caco-2 [9]; 1 nM) [%]	cell viability (Caco-2 [9]; 10 nM) [%]	cell viability (Caco-2 [9]; 100 nM) [%]	cell viability (Caco-2 [9]; 1000 nM) [%]	cell viability (Caco-2 [9]; 10000 nM) [%]	cell viability (U2OS [10]; 1 nM) [%]	cell viability (U2OS [10]; 10 nM) [%]	cell viability (U2OS [10]; 100 nM) [%]	cell viability (U2OS [10]; 1000 nM) [%]	cell viability (U2OS [10]; 10000 nM) [%]	relative viability EC50 (Vero E6 [11]) [µM]	relative viability EC50 (HepG2 [12]) [µM]	relative viability EC50 (Calu-3 [13]) [µM]	relative viability EC50 (Caco-2 [14]) [µM]	relative viability EC50 (U2OS [15]) [µM]
O=C1NC(=O)c2c1c1c3ccccc3[nH]c1c1[nH]c3ccccc3c21 [arcyriaflavin-a]	0	12.6	0	0.3	0	103	103	99.5	92.1	91.7	91.7	101	86.3	43.3	47.4	105	112	95.6	104	106	98.1	107	99.9	98.9	85.4	104	99.8	101	96.9	93.7	> 10	0.158	> 10	> 10	> 10
CC[C@H](C)[C@H](N)C1=N[C@H](C(=O)N[C@@H](CC(C)C)C(=O)N[C@H](CCC(=O)[O-])C(=O)N[C@H](C(=O)N[C@H]2CCCCNC(=O)[C@H](CC(N)=O)NC(=O)[C@@H](CC(=O)[O-])NC(=O)[C@H](Cc3cnc[nH]3)NC(=O)[C@@H](Cc3ccccc3)NC(=O)[C@H]([C@@H](C)CC)NC(=O)[C@@H](CCCN)NC2=O)[C@@H](C)CC)CS1.[Zn+2] [bacitracin-zinc]	0	0	0	0	0	96.2	89.9	100	95.5	112	96.9	100	110	93.6	111	93.7	106	112	99.9	106	93.8	90.5	104	104	110	92.8	99.4	96.4	103	104	> 10	> 10	> 10	> 10	> 10
CCC(=O)OCC(=O)[C@@]1(OC(=O)CC)[C@@H](C)C[C@H]2[C@@H]3CCC4=CC(=O)C=C[C@]4(C)[C@@]3(Cl)[C@@H](O)C[C@@]21C [beclomethasone-dipropionate]	0	2.6	0	0	0	95.8	90.6	102	80.1	99.5	97.3	95.7	99.2	81.3	80.2	104	106	97	101	88.6	97.1	97.3	94.3	104	111	96.8	102	95.9	99.1	97.2	> 10	> 10	> 10	> 10	> 10
C/C(=C(\CCOP(=O)(O)O)SC(=O)c1ccccc1)N(C=O)Cc1cnc(C)nc1N [benfotiamine]	0	0	0	0	0	100	98.3	98.9	97.4	96.2	95.1	92.4	88.4	92.7	97	97.2	96.9	95.8	95.4	92.1	99.7	101	91	94.6	89.1	99.1	101	95.7	98.5	99.5	> 10	> 10	> 10	> 10	> 10
O=C(O)c1ccccc1 [benzoic-acid]	0	0	0	0	0	97.1	97.6	100	97.7	102	101	95.6	104	92.4	96.3	99.4	101	96.8	99.2	92.6	99	101	95.9	98.7	98.7	98.9	102	99.1	98.2	95.9	> 10	> 10	> 10	> 10	> 10
